Measurements reported in ChEMBL document CHEMBL4420076, “Amylin and calcitonin receptor agonist” (2017).
Numbered stars: 1 amine (or outer) side, 2 acyl side, 3 side chain; on linkers, the order of the positions; unused ones are H or OH. Side chains are listed from the residue outwards. Peptide text beside a SMILES is read from it. * marks the point of attachment. C20 diacid = O=C(O)CCCCCCCCCCCCCCCCCCC(=O)*; C18 diacid = O=C(O)CCCCCCCCCCCCCCCCC(=O)*; γGlu = O=C(O)[C@H](CCC(=O)[*:2])N[*:1]

Legend:
Calcitonin receptor [1] = biological target: T1, Calcitonin receptor (Homo sapiens, UniProt P30988); experiment: Agonist activity at human calcitonin receptor expressed in BHK570 cells assessed as increase in intracellular cAMP concentration incubated for 3 hrs in absence of albumin by CRE luciferase reporter gene assay; assay type: functional, cell-based
T1 sequence (P30988 whole entry): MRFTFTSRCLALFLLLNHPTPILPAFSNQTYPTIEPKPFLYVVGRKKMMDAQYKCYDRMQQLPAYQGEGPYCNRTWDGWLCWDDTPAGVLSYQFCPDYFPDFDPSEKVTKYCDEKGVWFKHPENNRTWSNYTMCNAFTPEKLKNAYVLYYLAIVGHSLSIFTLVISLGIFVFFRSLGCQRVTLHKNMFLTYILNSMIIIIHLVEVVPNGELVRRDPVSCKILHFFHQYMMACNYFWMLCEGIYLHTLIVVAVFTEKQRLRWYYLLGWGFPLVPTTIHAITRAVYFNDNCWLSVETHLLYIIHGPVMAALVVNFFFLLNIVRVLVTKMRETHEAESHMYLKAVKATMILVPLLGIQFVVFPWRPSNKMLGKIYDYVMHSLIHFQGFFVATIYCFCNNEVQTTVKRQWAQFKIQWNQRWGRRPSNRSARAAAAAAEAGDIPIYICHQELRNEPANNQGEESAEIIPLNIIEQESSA

Calcitonin receptor [2] = biological target: T1, Calcitonin receptor; experiment: Agonist activity at human calcitonin receptor expressed in BHK570 cells assessed as increase in intracellular cAMP concentration incubated for 3 hrs in presence of 10% FBS by CRE luciferase reporter gene assay; assay type: functional, cell-based
[3] = Solubility in 100 mM glycylglycine buffer at pH 5.0 incubated for 18 hrs by UPLC analysis; assay type: physicochemical
[4] = biological target: T2, Amylin receptor AMY3; CALCR/RAMP3 (Rattus norvegicus, UniProt P32214+Q9JJ73); experiment: Displacement of [125I]-labeled rat amylin from rat amylin receptor expressed in BHK tkts13 cell membranes co-expressing RAMP3 incubated for 120 mins by scintillation proximity assay
T2 sequence (P32214 whole entry): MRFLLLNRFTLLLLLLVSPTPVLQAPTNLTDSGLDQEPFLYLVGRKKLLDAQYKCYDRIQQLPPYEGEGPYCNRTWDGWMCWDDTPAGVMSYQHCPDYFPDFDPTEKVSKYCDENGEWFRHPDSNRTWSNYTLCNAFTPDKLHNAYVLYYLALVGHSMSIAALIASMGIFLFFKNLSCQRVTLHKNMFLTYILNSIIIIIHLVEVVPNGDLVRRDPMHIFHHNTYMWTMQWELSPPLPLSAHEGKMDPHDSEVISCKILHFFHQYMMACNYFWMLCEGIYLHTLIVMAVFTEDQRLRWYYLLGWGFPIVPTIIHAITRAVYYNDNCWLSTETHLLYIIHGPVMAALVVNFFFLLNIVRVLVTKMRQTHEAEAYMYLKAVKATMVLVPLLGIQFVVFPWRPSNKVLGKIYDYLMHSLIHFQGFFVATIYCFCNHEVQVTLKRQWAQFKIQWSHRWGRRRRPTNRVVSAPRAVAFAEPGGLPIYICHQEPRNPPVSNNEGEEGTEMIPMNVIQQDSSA
T2 sequence (Q9JJ73 whole entry): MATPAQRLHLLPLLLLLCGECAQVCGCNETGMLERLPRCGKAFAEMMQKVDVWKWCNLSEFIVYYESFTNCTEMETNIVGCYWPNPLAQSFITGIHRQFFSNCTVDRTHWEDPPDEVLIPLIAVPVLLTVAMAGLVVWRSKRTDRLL

[5] = Solubility in 100 mM bistrispropane buffer at pH 6.0 incubated for 18 hrs by UPLC analysis; assay type: physicochemical
[6] = Solubility in 100 mM glycylglycine buffer at pH 3.0 incubated for 18 hrs by UPLC analysis; assay type: physicochemical
[7] = Solubility in 100 mM glycylglycine buffer at pH 4.0 incubated for 18 hrs by UPLC analysis; assay type: physicochemical
[8] = Solubility in 100 mM bistrispropane buffer at pH 8.0 incubated for 18 hrs by UPLC analysis; assay type: physicochemical
[9] = biological target: T3, Amylin receptor AMY3; CALCR/RAMP3 (Homo sapiens, UniProt O60896+P30988); experiment: Agonist activity at human amylin receptor expressed in BHK570 cells co-expressing RAMP3 assessed as increase in intracellular cAMP concentration incubated for 3 hrs in absence of albumin by CRE luciferase reporter gene assay; assay type: functional, cell-based
T3 sequence (P30988 whole entry): T1 sequence (P30988 whole entry)
T3 sequence (O60896 whole entry): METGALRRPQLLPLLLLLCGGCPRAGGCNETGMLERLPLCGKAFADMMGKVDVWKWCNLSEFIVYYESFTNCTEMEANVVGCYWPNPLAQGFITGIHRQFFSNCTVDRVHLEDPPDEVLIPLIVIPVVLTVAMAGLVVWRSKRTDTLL

[10] = Solubility in 100 mM bistrispropane buffer at pH 7.5 incubated for 18 hrs by UPLC analysis; assay type: physicochemical
[11] = Solubility in 100 mM bistrispropane buffer at pH 7.0 incubated for 18 hrs by UPLC analysis; assay type: physicochemical
Calcitonin receptor [12] = biological target: T1, Calcitonin receptor; experiment: Displacement of [125I]-labeled human calcitonin from human calcitonin receptor expressed in BHK tkts13 cell membranes incubated for 1 hr by scintillation proximity assay
[13] = biological target: T3, Amylin receptor AMY3; CALCR/RAMP3; experiment: Agonist activity at human amylin receptor expressed in BHK570 cells co-expressing RAMP3 assessed as increase in intracellular cAMP concentration incubated for 3 hrs in presence of 10% FBS by CRE luciferase reporter gene assay; assay type: functional, cell-based
[14] = Solubility in 100 mM bistrispropane buffer at pH 6.5 incubated for 18 hrs by UPLC analysis; assay type: physicochemical
[15] = biological target: T3, Amylin receptor AMY3; CALCR/RAMP3; experiment: Displacement of [125I]-labeled rat amylin from human amylin receptor expressed in BHK570 cell membranes co-expressing RAMP3 incubated for 120 mins by scintillation proximity assay
Rattus norvegicus [16] = experiment: Reduction in food intake in Sprague-Dawley rat at 3 nmol/kg measured 24 to 48 hrs post dose relative to control; assay type: functional; design: scale not given: the % may be the effect or the level left
Rattus norvegicus [17] = experiment: Reduction in food intake in Sprague-Dawley rat at 3 nmol/kg measured 0 to 24 hrs post dose relative to control; assay type: functional; design: scale not given: the % may be the effect or the level left
[18] = Stability in pH 7.5 buffer assessed as compound recovery at 1 uM by Thioflavin T based fluorescence assay; assay type: physicochemical; conditions: read-out: Drug recovery
[19] = Stability in pH 7.5 buffer assessed as lag time for fibril formation at 1 uM by Thioflavin T based fluorescence assay; assay type: physicochemical; conditions: pH 7.5, 1 µM
[20] = biological target: T3, Amylin receptor AMY3; CALCR/RAMP3; experiment: Displacement of [125I]-labeled rat amylin from human amylin receptor expressed in BHK tkts13 whole cells co-expressing RAMP3 incubated for 60 mins by scintillation proximity assay; assay type: cell-based

SMILES	EC50 (Calcitonin receptor [1]) [nM]	EC50 (Calcitonin receptor [2]) [nM]	solubility at 18 h [3] [µM]	IC50 [4] [nM]	solubility at 18 h [5] [µM]	solubility at 18 h [6] [µM]	solubility at 18 h [7] [µM]	solubility at 18 h [8] [µM]	EC50 [9] [nM]	solubility at 18 h [10] [µM]	solubility at 18 h [11] [µM]	IC50 (Calcitonin receptor [12]) [nM]	EC50 [13] [nM]	solubility at 18 h [14] [µM]	IC50 [15] [nM]	Activity (Rattus norvegicus [16]) [%]	Activity (Rattus norvegicus [17]) [%]	remaining at 1 µM [18] [%]	Time [19] [h]	IC50 [20] [nM]
CC(=O)N[C@@H](C)C(=O)N[C@@H](CO)C(=O)N[C@@H](CCC(=O)O)C(=O)N[C@@H](CC(C)C)C(=O)N[C@@H](CO)C(=O)N[C@H](C(=O)N[C@@H](C)C(=O)N[C@@H](C)C(=O)N[C@@H](CC(C)C)C(=O)NCC(=O)N[C@@H](CCCNC(=N)N)C(=O)N[C@@H](CC(C)C)C(=O)N[C@@H](CO)C(=O)N[C@@H](C)C(=O)N[C@@H](CCCCNC(=O)CC[C@H](NC(=O)CCCCCCCCCCCCCCCCCCC(=O)O)C(=O)O)C(=O)N[C@@H](CC(C)C)C(=O)N[C@@H](Cc1cnc[nH]1)C(=O)N[C@@H](CCC(=O)O)C(=O)N[C@@H](CC(C)C)C(=O)N[C@@H](C)C(=O)N[C@H](C(=O)N[C@@H](CC(C)C)C(=O)N1CCC[C@H]1C(=O)N[C@@H](CCCNC(=N)N)C(=O)N[C@H](C(=O)N[C@@H](CCC(=O)O)C(=O)N[C@H](C(=O)NCC(=O)N[C@@H](CO)C(=O)NCC(=O)N[C@@H](CO)C(=O)N1CCC[C@H]1C(N)=O)[C@@H](C)O)[C@@H](C)O)[C@@H](C)O)[C@@H](C)O (Ac-ASELSTAALGRLSAK([γGlu-C20 diacid])LHELATLPRTETGSGSP-NH2)	0.028	0.044	≥ 200	0.115	≥ 200	≥ 200	≥ 200	≥ 200	0.021	≥ 200	≥ 200	0.046	0.1	≥ 200	0.074	–	–	–	–	–
CC(C)C[C@H](NC(=O)CNC(=O)[C@H](CO)NC(=O)[C@H](C)NC(=O)CC[C@H](NC(=O)CCCCCCCCCCCCCCCCC(=O)O)C(=O)O)C(=O)N[C@@H](CO)C(=O)N[C@H](C(=O)N[C@@H](C)C(=O)N[C@@H](C)C(=O)N[C@@H](CC(C)C)C(=O)NCC(=O)N[C@@H](CCCNC(=N)N)C(=O)N[C@@H](CC(C)C)C(=O)N[C@@H](CO)C(=O)N[C@@H](CCC(N)=O)C(=O)N[C@@H](CCC(=O)O)C(=O)N[C@@H](CC(C)C)C(=O)N[C@@H](Cc1cnc[nH]1)C(=O)N[C@@H](CCC(=O)O)C(=O)N[C@@H](CC(C)C)C(=O)N[C@@H](CCC(N)=O)C(=O)N[C@H](C(=O)N[C@@H](Cc1ccc(O)cc1)C(=O)N1CCC[C@H]1C(=O)N[C@@H](CCCNC(=N)N)C(=O)N[C@H](C(=O)N[C@@H](CCC(=O)O)C(=O)N[C@H](C(=O)NCC(=O)N[C@@H](CO)C(=O)NCC(=O)N[C@H](C(=O)N[C@@H](Cc1ccc(O)cc1)C(N)=O)[C@@H](C)O)[C@@H](C)O)[C@@H](C)O)[C@@H](C)O)[C@@H](C)O ({C18 diacid-γGlu}-ASGLSTAALGRLSQELHELQTYPRTETGSGTY-NH2)	–	0.053	–	–	≥ 200	≥ 200	≥ 200	≥ 200	–	≥ 200	≥ 200	0.057	0.07	≥ 200	0.122	8	44	100	> 45	–
CC(C)C[C@H](NC(=O)[C@H](C)NC(=O)[C@H](C)NC(=O)[C@@H](NC(=O)[C@H](CO)NC(=O)[C@H](CC(C)C)NC(=O)[C@H](CCC(=O)O)NC(=O)[C@H](CO)NC(=O)[C@H](C)NC(=O)CC[C@H](NC(=O)CCCCCCCCCCCCCCCCCCC(=O)O)C(=O)O)[C@@H](C)O)C(=O)NCC(=O)N[C@@H](CCCNC(=N)N)C(=O)N[C@@H](CC(C)C)C(=O)N[C@@H](CO)C(=O)N[C@@H](C)C(=O)N[C@@H](CCC(=O)O)C(=O)N[C@@H](CC(C)C)C(=O)N[C@@H](Cc1cnc[nH]1)C(=O)N[C@@H](CCC(=O)O)C(=O)N[C@@H](CC(C)C)C(=O)N[C@@H](C)C(=O)N[C@H](C(=O)N[C@@H](Cc1ccc(O)cc1)C(=O)N1CCC[C@H]1C(=O)N[C@@H](CCCNC(=N)N)C(=O)N[C@H](C(=O)N[C@@H](CCC(=O)O)C(=O)N[C@H](C(=O)NCC(=O)N[C@@H](CO)C(=O)NCC(=O)N[C@@H](C)C(=O)N1CCC[C@H]1C(N)=O)[C@@H](C)O)[C@@H](C)O)[C@@H](C)O ({C20 diacid-γGlu}-ASELSTAALGRLSAELHELATYPRTETGSGAP-NH2)	0.041	0.037	≥ 200	0.026	≥ 200	≥ 200	≥ 200	≥ 200	–	≥ 200	≥ 200	0.102	0.1	≥ 200	0.141	–	–	–	–	2.02
CC(C)C[C@H](NC(=O)CNC(=O)[C@H](CO)NC(=O)[C@H](C)NC(=O)CC[C@H](NC(=O)CCCCCCCCCCCCCCCCCCC(=O)O)C(=O)O)C(=O)N[C@@H](CO)C(=O)N[C@H](C(=O)N[C@@H](C)C(=O)N[C@@H](C)C(=O)N[C@@H](CC(C)C)C(=O)NCC(=O)N[C@@H](CCCNC(=N)N)C(=O)N[C@@H](CC(C)C)C(=O)N[C@@H](CO)C(=O)N[C@@H](CCC(N)=O)C(=O)N[C@@H](CCC(=O)O)C(=O)N[C@@H](CC(C)C)C(=O)N[C@@H](Cc1cnc[nH]1)C(=O)N[C@@H](CCC(=O)O)C(=O)N[C@@H](CC(C)C)C(=O)N[C@@H](CCC(N)=O)C(=O)N[C@H](C(=O)N[C@@H](Cc1ccc(O)cc1)C(=O)N1CCC[C@H]1C(=O)N[C@@H](Cc1cnc[nH]1)C(=O)N[C@H](C(=O)N[C@@H](CCC(=O)O)C(=O)N[C@H](C(=O)NCC(=O)N[C@@H](CO)C(=O)NCC(=O)N[C@H](C(=O)N[C@@H](Cc1ccc(O)cc1)C(N)=O)[C@@H](C)O)[C@@H](C)O)[C@@H](C)O)[C@@H](C)O)[C@@H](C)O ({C20 diacid-γGlu}-ASGLSTAALGRLSQELHELQTYPHTETGSGTY-NH2)	0.027	0.099	–	0.026	≥ 200	≥ 200	≥ 200	≥ 200	0.041	≥ 200	≥ 200	0.15	–	≥ 200	0.166	14	20	–	–	0.142
